Results: PMC10977697 (PLOS ONE, 2024)
Where a SMILES comes first, the peptide text is derived from it. Where no end group is shown, it is not given here.

Legend:
HtrA1 = type: binding, human; conditions: ratio of signal for target protein over BSA background
HtrA1 FL [1] = target: T1, HtrA1 FL (Homo sapiens, UniProt Q92743); type: binding; conditions: Biacore S200, 25°C; biotinylated HtrA1 FL on chip SA; 10 mM HEPES (8.0), 200mM NaCl, 0.25% CHAPS, 5% DMSO; steady state fitting; n/d = no binding; read-out: Kd(μM) SPR
T1 construct: HtrA1 (Q23-P480, 5654, Tni Baculovirus); made in house; host or cells: Trichoplusia ni (Tni) cells, baculovirus
T1 sequence (Q92743 23-480): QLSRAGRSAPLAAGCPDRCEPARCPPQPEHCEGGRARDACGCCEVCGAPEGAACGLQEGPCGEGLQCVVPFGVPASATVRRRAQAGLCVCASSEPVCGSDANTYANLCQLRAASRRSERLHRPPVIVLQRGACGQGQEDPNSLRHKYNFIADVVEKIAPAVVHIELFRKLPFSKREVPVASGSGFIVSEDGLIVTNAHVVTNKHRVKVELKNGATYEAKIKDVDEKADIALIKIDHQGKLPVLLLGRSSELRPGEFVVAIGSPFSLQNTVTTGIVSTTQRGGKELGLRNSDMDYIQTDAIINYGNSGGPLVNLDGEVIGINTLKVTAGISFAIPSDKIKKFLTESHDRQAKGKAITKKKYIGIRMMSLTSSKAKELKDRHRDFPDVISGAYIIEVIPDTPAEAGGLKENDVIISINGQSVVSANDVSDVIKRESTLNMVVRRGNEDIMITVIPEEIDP

HtrA1 FL [2] = target: T1, HtrA1 FL; assay: HtrA1 enzyme assay with substrate H2-OPT; type: biochemical; conditions: 20 μM DCP, 1 nM HtrA1, 5 μM H2-OPT, 15 min pre-incubation, 37°C, pH 8.0, 0.1% DMSO; average of three independent experiments (Fig 3B)
Experimental: Human full-length HtrA1 (HtrA1 FL) was expressed in Trichoplusia ni cells and purified as described. Enzyme assays with the fluorescence-quenched synthetic substrate Mca-[…](Dnp)KK (H2-OPT) were carried out essentially as described (Eigenbrot 2012). DCP stock solutions in DMSO were diluted in 50 mM Tris-HCl, pH 8.0, 200 mM NaCl, 0.25% CHAPS (assay buffer) and incubated with HtrA1 in 96-well black optical bottom plates for 15 min at 37°C. A 10 mM stock solution of H2-OPT in DMSO was diluted with water, prewarmed at 37°C and then added to the DCP-enzyme mixtures. The final concentrations in the reaction mixtures were: 1 nM HtrA1, 20 μM DCP, 5 μM H2-OPT, 0.1% DMSO. Substrate cleavage was measured at 37°C on a SPECTRAmax M5 microplate reader (Molecular Devices) and the initial rates of cleavage determined. […] The enzyme activities were expressed as percent of control values (without DCP). The determined values represent the average ± S.D. of three independent experiments.

Notch 2 = assay: Phage competition ELISA on Notch 2; type: binding, human; conditions: N2L_EET03 peptide against N2L_EET31 displaying phage (Fig 5C)
Description: Subsequently, we selected another primary hit, N2L.EET31, for affinity maturation as outlined in Fig 5A with improved outcome. Despite displaying a weak ELISA signal, N2L.EET31 was identified as the most abundant sequence by NGS analysis (56.6% in round 4). […] Due to these observations, N2L.EET31 was selected as another candidate for affinity maturation. An NNK-walking experiment (described in the methods section) provided valuable information on the functional importance of individual loop residues. […] These residues are either crucial for binding or play a critical role in overall peptide folding. […] Based on this information, we designed hard randomization libraries for Loop 2 and Loop 3_4 as part of the second generation of affinity maturation.

[3] = target: T2, Notch2Long (Notch2 EGF6-EGF12) (Homo sapiens, UniProt Q04721); assay: SPR binding of synthetic DCPs to Notch2Long; conditions: Biacore S200, 25°C, 50 μL/min; synthetic in vitro folded peptide, 3-fold dilution from 100 μM; biotinylated N2L on chip SA; steady state fitting; at least three independent experiments; n/d = no binding
T2 construct: Biotinylated N2L protein (D219–E418, made in-house); His tag (cleaved yes); made in house; host or cells: CHO
T2 sequence (Q04721 219-418): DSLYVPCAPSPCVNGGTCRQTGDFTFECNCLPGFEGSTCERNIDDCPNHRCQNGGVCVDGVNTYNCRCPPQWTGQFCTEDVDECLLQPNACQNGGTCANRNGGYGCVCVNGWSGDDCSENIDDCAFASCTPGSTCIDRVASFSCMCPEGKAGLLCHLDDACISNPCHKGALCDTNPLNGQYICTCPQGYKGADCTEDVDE
Experimental: (§1) All binding experiments were performed using a Biacore S200 instrument (GE Healthcare) at 25°C at a flow rate of 50 μL/min. The kinetics and affinity measurements were carried out using either single-cycle or multi-cycle kinetics (SCK or MCK), solvent corrected and referenced by subtracting the signal to the blank flow cell. Binding affinity and kinetic parameters (association and dissociation rate constants, and dissociation equilibrium constant) were calculated with the Biacore S200 Evaluation Software (version 1.1.1, Cytiva) using either a 1:1 binding model or a steady-state equilibrium model (according to the manufacturer’s instructions).
(§2) Biotinylated N2L protein (D219–E418, made in-house) and NRR protein (A1423–Q1677, made in-house) were captured at around 500, 1000 and 1500 RU on Sensor Chip SA (Cytiva).

Notch2Long = assay: Spot phage ELISA, Notch2Long; type: binding, human; conditions: Table 3, affinity maturation clones
[4] = target: T3, Notch2NRR (Notch2 NRR domain) (Homo sapiens, UniProt Q04721); assay: SPR binding of synthetic DCPs to Notch2NRR; conditions: Biacore S200, 25°C; synthetic folded peptide, 3-fold dilution from 100 μM; biotinylated NRR on chip SA; steady state fitting
T3 construct: NRR protein (A1423–Q1677, made in-house); His tag (cleaved yes); made in house; host or cells: CHO
T3 sequence (Q04721 1423-1677): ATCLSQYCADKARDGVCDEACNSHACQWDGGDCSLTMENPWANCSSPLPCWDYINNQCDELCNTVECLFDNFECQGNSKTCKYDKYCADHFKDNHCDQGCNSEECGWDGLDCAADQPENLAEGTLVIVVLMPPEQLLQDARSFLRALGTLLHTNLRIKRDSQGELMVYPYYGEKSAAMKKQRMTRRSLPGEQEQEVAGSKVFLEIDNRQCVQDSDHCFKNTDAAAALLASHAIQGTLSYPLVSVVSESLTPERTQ
Experimental: as §1, §2

Notch2NRR = assay: Spot phage ELISA, Notch2NRR; type: binding, human; conditions: ratio of signal for target protein over BSA background
BamA-amphipol = assay: Spot phage ELISA, BamA-amphipol; type: binding, bacterial

CC[C@H](C)[C@@H]1NC(=O)[C@H](CCC(N)=O)NC(=O)[C@H](CCCNC(=N)N)NC(=O)[C@H](C(C)C)NC(=O)[C@@H]2CSSC[C@H](NC(=O)[C@H](CC(=O)O)NC(=O)[C@H](Cc3ccccc3)NC(=O)[C@H](C)N)C(=O)N[C@@H](CC(C)C)C(=O)NCC(=O)N[C@@H](CCC(N)=O)C(=O)N[C@H]3CSSC[C@H](NC(=O)[C@H](Cc4ccc(O)cc4)NC(=O)[C@H](Cc4c[nH]cn4)NC(=O)[C@H](CO)NC(=O)[C@H](CC(C)C)NC(=O)[C@H](CC(N)=O)NC(=O)[C@H]([C@@H](C)CC)NC(=O)[C@H](C(C)C)NC(=O)[C@H](CCCNC(=N)N)NC(=O)[C@H](Cc4c[nH]c5ccccc45)NC(=O)[C@H](C(C)C)NC1=O)C(=O)N[C@@H](CC(N)=O)C(=O)N[C@@H](CO)C(=O)N[C@@H](CO)C(=O)N[C@H](C(=O)N[C@H](C(=O)N[C@@H](CCCNC(=N)N)C(=O)O)[C@@H](C)O)CSSC[C@H](NC(=O)[C@H](CCCNC(=N)N)NC(=O)CNC3=O)C(=O)N[C@@H](CC(=O)O)C(=O)N[C@@H](Cc1ccccc1)C(=O)N[C@@H](Cc1c[nH]cn1)C(=O)N[C@@H](CCCCN)C(=O)N[C@@H](CC(C)C)C(=O)N[C@@H](CCC(N)=O)C(=O)N2 [HtrA1_AVR62] (HELM PEPTIDE1{A.F.D.C.L.G.Q.C.G.R.C.D.F.H.K.L.Q.C.V.R.Q.I.V.W.R.V.I.N.L.S.H.Y.C.N.S.S.C.T.R}$PEPTIDE1,PEPTIDE1,4:R3-18:R3|PEPTIDE1,PEPTIDE1,8:R3-33:R3|PEPTIDE1,PEPTIDE1,11:R3-37:R3$$$V2.0; N-terminus and C-terminus assumed)
S/N (HtrA1): 19.5
Kd (HtrA1 FL [1]): > 15 µM
inhibition of HtrA1 activity (HtrA1 FL [2]): more than 75%

CC[C@H](C)[C@@H]1NC(=O)[C@@H](NC(=O)CN)CSSC[C@@H]2NC(=O)CNC(=O)[C@H](C)NC(=O)[C@H](CC(C)C)NC(=O)[C@@H]3CSSC[C@@H](C(=O)NCC(=O)O)NC(=O)[C@H](CCC(N)=O)NC(=O)[C@H]([C@@H](C)CC)NC(=O)[C@H](Cc4c[nH]c5ccccc45)NC(=O)[C@H](C(C)C)NC(=O)[C@H](CCC(=O)O)NC(=O)[C@H](CSSC[C@H](NC(=O)[C@H](Cc4c[nH]c5ccccc45)NC(=O)[C@H](CC(C)C)NC(=O)[C@H](Cc4c[nH]cn4)NC(=O)[C@H](CO)NC(=O)[C@H](CCCCN)NC1=O)C(=O)N[C@@H](CCCCN)C(=O)N[C@@H](CCC(N)=O)C(=O)N[C@@H](CC(=O)O)C(=O)N[C@@H](CO)C(=O)N[C@@H](CC(=O)O)C(=O)N3)NC(=O)[C@H](C(C)C)NC2=O [N2L.EET31] (HELM PEPTIDE1{G.C.I.K.S.H.L.W.C.K.Q.D.S.D.C.L.A.G.C.V.C.E.V.W.I.Q.C.G}$PEPTIDE1,PEPTIDE1,2:R3-19:R3|PEPTIDE1,PEPTIDE1,9:R3-21:R3|PEPTIDE1,PEPTIDE1,15:R3-27:R3$$$V2.0; N-terminus and C-terminus assumed)
competition in phage competition ELISA (Notch 2): exhibited competition with N2L.EET03
Kd [3]: > 100 µM
s/n ratio (Notch2Long; signal over BSA background): 0.4
ELISA (Notch2Long; spot phage ELISA signal, display (p8 or p3) not given per clone): 0.1

CC(C)C[C@@H]1NC(=O)[C@@H](NC(=O)[C@H](CC(=O)O)NC(=O)[C@H](Cc2ccccc2)NC(=O)[C@H](C)N)CSSC[C@@H]2NC(=O)[C@H](CCC(N)=O)NC(=O)[C@H](CC(C)C)NC(=O)[C@H](CCCCN)NC(=O)[C@H](Cc3c[nH]cn3)NC(=O)[C@H](Cc3ccccc3)NC(=O)[C@H](CC(=O)O)NC(=O)[C@@H]3CSSC[C@@H](C(=O)N[C@H](C(=O)N[C@@H](CCCNC(=N)N)C(=O)O)[C@@H](C)O)NC(=O)[C@H](CO)NC(=O)[C@H](CO)NC(=O)[C@H](CC(N)=O)NC(=O)[C@H](CSSC[C@H](NC(=O)[C@H](CCC(N)=O)NC(=O)CNC1=O)C(=O)NCC(=O)N[C@@H](CCCNC(=N)N)C(=O)N3)NC(=O)[C@H](Cc1ccc(O)cc1)NC(=O)[C@H](CCC(N)=O)NC(=O)[C@H](CCCCN)NC(=O)[C@H](Cc1ccc(O)cc1)NC(=O)[C@H]([C@@H](C)O)NC(=O)[C@H](Cc1c[nH]c3ccccc13)NC(=O)[C@H](CO)NC(=O)[C@H](Cc1ccc(O)cc1)NC(=O)[C@@H]1CCCN1C(=O)[C@H](C(C)C)NC2=O [N2N-AVR-19] (HELM PEPTIDE1{A.F.D.C.L.G.Q.C.G.R.C.D.F.H.K.L.Q.C.V.P.Y.S.W.T.Y.K.Q.Y.C.N.S.S.C.T.R}$PEPTIDE1,PEPTIDE1,4:R3-18:R3|PEPTIDE1,PEPTIDE1,8:R3-29:R3|PEPTIDE1,PEPTIDE1,11:R3-33:R3$$$V2.0; N-terminus and C-terminus assumed)
Kd [4]: 9.4 µM
s/n ratio (Notch2NRR): 35.7

CC(C)C[C@@H]1NC(=O)[C@@H](NC(=O)[C@H](CC(=O)O)NC(=O)[C@H](Cc2ccccc2)NC(=O)[C@H](C)N)CSSC[C@@H]2NC(=O)[C@H](CCC(N)=O)NC(=O)[C@H](CC(C)C)NC(=O)[C@H](CCCCN)NC(=O)[C@H](Cc3c[nH]cn3)NC(=O)[C@H](Cc3ccccc3)NC(=O)[C@H](CC(=O)O)NC(=O)[C@@H]3CSSC[C@@H](C(=O)N[C@H](C(=O)N[C@@H](CCCNC(=N)N)C(=O)O)[C@@H](C)O)NC(=O)[C@H](CO)NC(=O)[C@H](CO)NC(=O)[C@H](CC(N)=O)NC(=O)[C@H](CSSC[C@H](NC(=O)[C@H](CCC(N)=O)NC(=O)CNC1=O)C(=O)NCC(=O)N[C@@H](CCCNC(=N)N)C(=O)N3)NC(=O)[C@H](Cc1ccc(O)cc1)NC(=O)[C@@H]1CCCN1C(=O)[C@H](CO)NC(=O)[C@H](Cc1c[nH]cn1)NC(=O)[C@H](CCCNC(=N)N)NC(=O)[C@H](CC(N)=O)NC(=O)[C@H](CO)NC(=O)[C@H](Cc1c[nH]c3ccccc13)NC(=O)[C@H](C(C)C)NC2=O [N2N-AVR-n6] (HELM PEPTIDE1{A.F.D.C.L.G.Q.C.G.R.C.D.F.H.K.L.Q.C.V.W.S.N.R.H.S.P.Y.C.N.S.S.C.T.R}$PEPTIDE1,PEPTIDE1,4:R3-18:R3|PEPTIDE1,PEPTIDE1,8:R3-28:R3|PEPTIDE1,PEPTIDE1,11:R3-32:R3$$$V2.0; N-terminus and C-terminus assumed)
Kd [4]: 0.8 µM
s/n ratio (Notch2NRR): 39.3

GCTMWQRLQAKYCKQDSDCLAGCVCHAREKCG (also: bicyclic or more (positions not given here)) [BamA-amphipol EET I-II 1]
S/N (BamA-amphipol; ratio of signal for target protein over BSA background): 8.1
ELISA (BamA-amphipol; spot phage ELISA signal, DCP displayed on M13 p8): 1.50
